{"source": "patent US11572590B2", "about": "“Methods for evaluating tumor cell spheroids using 3D microfluidic cell culture device” (Dana-Farber Cancer Institute, Inc., priority 2017, dated 2023)", "test_in_all_cases": "SelectScreen Kinase Profiling, single point inhibition and IC50 for off-target kinases", "type_in_all_cases": "biochemical", "key": {"off-target kinases [1]": {"target": "off-target kinases (Homo sapiens, UniProt Q9Y3S1)", "settings": "WNK2, LanthaScreen Binding"}, "off-target kinases [2]": {"target": "off-target kinases (Homo sapiens, UniProt P49137)", "sequence (P49137 whole entry)": "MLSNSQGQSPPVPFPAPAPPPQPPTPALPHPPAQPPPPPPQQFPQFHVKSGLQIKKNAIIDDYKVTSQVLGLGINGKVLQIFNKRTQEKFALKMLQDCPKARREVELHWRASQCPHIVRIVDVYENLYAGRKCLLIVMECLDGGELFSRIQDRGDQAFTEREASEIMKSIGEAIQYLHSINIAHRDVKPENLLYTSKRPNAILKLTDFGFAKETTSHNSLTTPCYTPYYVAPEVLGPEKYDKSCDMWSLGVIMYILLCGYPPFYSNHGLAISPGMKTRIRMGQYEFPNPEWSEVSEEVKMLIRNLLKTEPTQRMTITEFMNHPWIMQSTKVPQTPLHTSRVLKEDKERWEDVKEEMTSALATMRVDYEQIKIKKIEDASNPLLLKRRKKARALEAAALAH", "settings": "MAPKAPK2, ZLYTE, ATP Km app"}, "off-target kinases [3]": {"target": "off-target kinases (Homo sapiens, UniProt Q06187)", "sequence (Q06187 whole entry)": "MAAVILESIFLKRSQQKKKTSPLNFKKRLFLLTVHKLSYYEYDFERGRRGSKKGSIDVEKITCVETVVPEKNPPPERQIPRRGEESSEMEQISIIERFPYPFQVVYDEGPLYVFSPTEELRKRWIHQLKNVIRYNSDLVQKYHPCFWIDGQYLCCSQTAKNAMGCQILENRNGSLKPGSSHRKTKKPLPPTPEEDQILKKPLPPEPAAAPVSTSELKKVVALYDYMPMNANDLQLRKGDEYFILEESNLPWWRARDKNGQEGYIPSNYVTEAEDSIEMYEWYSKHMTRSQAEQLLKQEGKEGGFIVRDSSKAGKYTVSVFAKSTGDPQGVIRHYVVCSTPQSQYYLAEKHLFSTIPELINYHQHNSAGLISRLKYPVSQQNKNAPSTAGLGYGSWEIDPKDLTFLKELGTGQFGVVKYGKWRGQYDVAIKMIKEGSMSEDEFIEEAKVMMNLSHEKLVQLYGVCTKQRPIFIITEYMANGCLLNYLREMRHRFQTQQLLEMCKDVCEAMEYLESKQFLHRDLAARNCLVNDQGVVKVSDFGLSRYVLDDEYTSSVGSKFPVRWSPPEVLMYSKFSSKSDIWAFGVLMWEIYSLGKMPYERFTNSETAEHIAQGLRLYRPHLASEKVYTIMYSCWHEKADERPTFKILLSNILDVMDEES", "settings": "BTK, ZLYTE, ATP Km app"}, "off-target kinases [4]": {"target": "T1, off-target kinases (Homo sapiens, UniProt P33981)", "T1 sequence (P33981 1-857)": "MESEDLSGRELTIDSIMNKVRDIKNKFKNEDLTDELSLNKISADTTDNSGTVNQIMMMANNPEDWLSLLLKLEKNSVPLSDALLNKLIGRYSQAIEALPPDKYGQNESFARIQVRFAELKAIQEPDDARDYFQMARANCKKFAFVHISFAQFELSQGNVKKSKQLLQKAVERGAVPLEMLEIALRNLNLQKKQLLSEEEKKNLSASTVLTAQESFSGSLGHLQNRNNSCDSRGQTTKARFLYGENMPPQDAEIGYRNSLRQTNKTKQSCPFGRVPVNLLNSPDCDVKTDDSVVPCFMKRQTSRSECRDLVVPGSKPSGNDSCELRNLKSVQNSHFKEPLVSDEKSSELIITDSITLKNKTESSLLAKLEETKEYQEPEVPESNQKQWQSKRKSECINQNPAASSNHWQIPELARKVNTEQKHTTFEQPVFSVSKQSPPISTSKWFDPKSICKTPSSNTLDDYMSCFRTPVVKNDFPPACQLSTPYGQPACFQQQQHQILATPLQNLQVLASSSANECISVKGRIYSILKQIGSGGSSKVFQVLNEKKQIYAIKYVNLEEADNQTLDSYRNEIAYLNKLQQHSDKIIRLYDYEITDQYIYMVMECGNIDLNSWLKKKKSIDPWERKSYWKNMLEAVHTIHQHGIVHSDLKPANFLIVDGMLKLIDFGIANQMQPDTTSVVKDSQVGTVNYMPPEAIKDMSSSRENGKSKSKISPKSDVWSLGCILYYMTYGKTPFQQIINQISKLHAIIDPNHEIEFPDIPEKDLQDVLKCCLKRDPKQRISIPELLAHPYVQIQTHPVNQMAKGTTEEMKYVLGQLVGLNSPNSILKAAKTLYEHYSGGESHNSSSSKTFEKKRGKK", "settings": "TTK, LanthaScreen Binding"}, "off-target kinases [5]": {"target": "off-target kinases (Homo sapiens, UniProt P00519)", "sequence (P00519 whole entry)": "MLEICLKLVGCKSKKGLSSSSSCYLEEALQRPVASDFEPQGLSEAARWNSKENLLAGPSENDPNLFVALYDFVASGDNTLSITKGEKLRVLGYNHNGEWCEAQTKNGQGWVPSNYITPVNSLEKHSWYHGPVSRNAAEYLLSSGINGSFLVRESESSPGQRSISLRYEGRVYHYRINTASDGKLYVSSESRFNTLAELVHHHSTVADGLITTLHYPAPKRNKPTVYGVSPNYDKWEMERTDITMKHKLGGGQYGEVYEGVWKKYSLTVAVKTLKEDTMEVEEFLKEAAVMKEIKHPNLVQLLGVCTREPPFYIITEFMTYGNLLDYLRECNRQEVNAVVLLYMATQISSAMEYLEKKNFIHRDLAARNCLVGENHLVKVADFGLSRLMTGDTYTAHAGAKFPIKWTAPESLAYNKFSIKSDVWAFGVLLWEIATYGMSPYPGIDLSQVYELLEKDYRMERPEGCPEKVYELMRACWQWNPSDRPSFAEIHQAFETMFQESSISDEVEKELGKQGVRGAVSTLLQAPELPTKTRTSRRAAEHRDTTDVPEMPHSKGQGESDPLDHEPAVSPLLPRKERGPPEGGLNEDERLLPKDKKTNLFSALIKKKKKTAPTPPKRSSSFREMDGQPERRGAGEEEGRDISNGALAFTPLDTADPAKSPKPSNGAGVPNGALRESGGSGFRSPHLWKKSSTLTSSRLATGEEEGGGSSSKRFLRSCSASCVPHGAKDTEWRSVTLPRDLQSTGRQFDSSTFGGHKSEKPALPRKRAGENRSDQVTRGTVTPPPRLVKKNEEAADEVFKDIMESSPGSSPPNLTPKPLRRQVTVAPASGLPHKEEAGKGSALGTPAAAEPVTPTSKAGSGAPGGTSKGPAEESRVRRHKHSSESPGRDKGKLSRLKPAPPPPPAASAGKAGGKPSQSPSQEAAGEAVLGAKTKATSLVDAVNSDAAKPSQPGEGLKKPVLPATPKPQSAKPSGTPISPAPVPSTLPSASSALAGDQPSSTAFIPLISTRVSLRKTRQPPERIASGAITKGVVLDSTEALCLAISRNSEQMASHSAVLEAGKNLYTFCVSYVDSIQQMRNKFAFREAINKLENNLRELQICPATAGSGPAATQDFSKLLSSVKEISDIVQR", "settings": "ABL1, ATP Km app, ZLYTE"}, "off-target kinases [6]": {"target": "off-target kinases (Homo sapiens, UniProt P51451)", "sequence (P51451 whole entry)": "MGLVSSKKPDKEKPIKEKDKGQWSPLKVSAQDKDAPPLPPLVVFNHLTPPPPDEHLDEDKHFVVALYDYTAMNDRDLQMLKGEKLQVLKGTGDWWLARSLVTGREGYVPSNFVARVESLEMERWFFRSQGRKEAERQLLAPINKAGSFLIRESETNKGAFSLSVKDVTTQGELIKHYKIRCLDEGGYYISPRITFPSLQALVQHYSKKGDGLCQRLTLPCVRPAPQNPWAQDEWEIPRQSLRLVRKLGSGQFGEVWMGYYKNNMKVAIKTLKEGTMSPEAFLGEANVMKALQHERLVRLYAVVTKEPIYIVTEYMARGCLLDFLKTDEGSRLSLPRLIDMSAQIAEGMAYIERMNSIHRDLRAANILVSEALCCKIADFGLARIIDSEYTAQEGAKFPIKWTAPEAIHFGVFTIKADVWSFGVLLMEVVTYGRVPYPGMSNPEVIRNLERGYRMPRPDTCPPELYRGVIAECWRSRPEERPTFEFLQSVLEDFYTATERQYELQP", "settings": "BLK, ATP Km app, ZLYTE"}, "off-target kinases [7]": {"target": "off-target kinases (Homo sapiens, UniProt Q02763)", "sequence (Q02763 23-1124)": "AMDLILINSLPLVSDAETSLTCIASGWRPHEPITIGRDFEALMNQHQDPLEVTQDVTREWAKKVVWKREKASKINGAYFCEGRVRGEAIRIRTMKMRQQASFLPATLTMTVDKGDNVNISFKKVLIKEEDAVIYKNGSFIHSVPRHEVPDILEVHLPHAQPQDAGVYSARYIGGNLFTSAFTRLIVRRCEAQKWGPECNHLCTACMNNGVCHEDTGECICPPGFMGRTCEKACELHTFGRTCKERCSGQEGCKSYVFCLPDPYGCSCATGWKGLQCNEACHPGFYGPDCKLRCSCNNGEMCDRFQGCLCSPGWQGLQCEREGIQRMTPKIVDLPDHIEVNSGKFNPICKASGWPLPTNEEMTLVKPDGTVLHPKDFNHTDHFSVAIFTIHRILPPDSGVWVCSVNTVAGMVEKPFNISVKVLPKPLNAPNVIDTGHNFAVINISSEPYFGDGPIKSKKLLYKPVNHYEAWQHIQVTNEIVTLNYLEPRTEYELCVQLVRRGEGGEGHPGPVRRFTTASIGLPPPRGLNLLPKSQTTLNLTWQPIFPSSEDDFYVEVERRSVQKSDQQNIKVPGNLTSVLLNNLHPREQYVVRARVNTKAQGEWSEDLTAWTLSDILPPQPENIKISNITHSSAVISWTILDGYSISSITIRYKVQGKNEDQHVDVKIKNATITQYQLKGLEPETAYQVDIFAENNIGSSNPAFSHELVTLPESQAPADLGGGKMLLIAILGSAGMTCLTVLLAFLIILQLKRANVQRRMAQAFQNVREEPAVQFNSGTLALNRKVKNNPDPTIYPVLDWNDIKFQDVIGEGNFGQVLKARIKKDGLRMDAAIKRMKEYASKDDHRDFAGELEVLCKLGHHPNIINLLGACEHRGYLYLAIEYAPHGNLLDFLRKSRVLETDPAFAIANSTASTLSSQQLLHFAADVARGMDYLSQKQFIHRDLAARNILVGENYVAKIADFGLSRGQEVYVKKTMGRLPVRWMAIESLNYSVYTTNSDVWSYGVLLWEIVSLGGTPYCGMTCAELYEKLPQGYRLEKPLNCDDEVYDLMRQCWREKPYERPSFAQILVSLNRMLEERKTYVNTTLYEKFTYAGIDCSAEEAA", "settings": "TEK (Tie2), ZLYTE, ATP Km app"}, "off-target kinases [8]": {"target": "off-target kinases (Homo sapiens, UniProt P68400)", "sequence (P68400 whole entry)": "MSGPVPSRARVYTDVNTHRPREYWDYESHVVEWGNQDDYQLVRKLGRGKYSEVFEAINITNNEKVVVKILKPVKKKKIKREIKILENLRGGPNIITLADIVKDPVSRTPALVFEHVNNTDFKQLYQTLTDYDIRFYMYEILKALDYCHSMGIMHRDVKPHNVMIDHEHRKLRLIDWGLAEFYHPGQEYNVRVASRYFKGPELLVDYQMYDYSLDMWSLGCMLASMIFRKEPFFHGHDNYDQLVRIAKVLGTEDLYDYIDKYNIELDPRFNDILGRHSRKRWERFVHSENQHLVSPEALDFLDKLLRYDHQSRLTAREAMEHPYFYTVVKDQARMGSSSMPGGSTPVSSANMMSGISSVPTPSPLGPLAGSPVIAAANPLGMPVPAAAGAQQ", "settings": "CSNK2A1 (CK2 alpha 1), ZLYTE, ATP Km app"}}, "note": "Where two headings read alike, the source gives them in different places."}
{"smiles": "N#Cc1cc(-c2ncnc(Nc3ccc(N4CCN(C5COC5)CC4)cc3)n2)ccc1OC1CCOCC1", "note": "[Compound 1, 5-(4-((4-(4-(oxetan-3-yl)piperazin-1-yl)phenyl)amino)-1,3,5-triazin-2-yl)-2-((tetrahydro-2H-pyran-4-yl)oxy)benzonitrile]", "values": [{"measurement": "inhibition", "setting": "off-target kinases [1]; read-out: % Inhibition 1", "result": -4, "unit": "%"}, {"measurement": "inhibition", "setting": "off-target kinases [1]; read-out: % Inhibition 2", "result": 5, "unit": "%"}, {"measurement": "inhibition", "setting": "off-target kinases [1]; read-out: % Inhibition Avg", "result": 1, "unit": "%"}, {"measurement": "inhibition", "setting": "off-target kinases [2]; read-out: % Inhibition 1", "result": 0, "unit": "%"}, {"measurement": "inhibition", "setting": "off-target kinases [2]; read-out: % Inhibition 2", "result": -1, "unit": "%"}, {"measurement": "inhibition", "setting": "off-target kinases [2]; read-out: % Inhibition Avg", "result": 0, "unit": "%"}, {"measurement": "inhibition", "setting": "off-target kinases [3]; read-out: % Inhibition 1", "result": 3, "unit": "%"}, {"measurement": "inhibition", "setting": "off-target kinases [3]; read-out: % Inhibition 2", "result": 6, "unit": "%"}, {"measurement": "inhibition", "setting": "off-target kinases [3]; read-out: % Inhibition Avg", "result": 5, "unit": "%"}, {"measurement": "inhibition", "setting": "off-target kinases [4]; read-out: % Inhibition 1", "result": 33, "unit": "%"}, {"measurement": "inhibition", "setting": "off-target kinases [4]; read-out: % Inhibition 2", "result": 34, "unit": "%"}, {"measurement": "inhibition", "setting": "off-target kinases [4]; read-out: % Inhibition Avg", "result": 33, "unit": "%"}, {"measurement": "inhibition", "setting": "off-target kinases [5]; read-out: % Inhibition 1", "result": 48, "unit": "%"}, {"measurement": "inhibition", "setting": "off-target kinases [5]; read-out: % Inhibition 2", "result": 51, "unit": "%"}, {"measurement": "inhibition", "setting": "off-target kinases [5]; read-out: % Inhibition Avg", "result": 49, "unit": "%"}, {"measurement": "inhibition", "setting": "off-target kinases [6]; read-out: % Inhibition 1", "result": 41, "unit": "%"}, {"measurement": "inhibition", "setting": "off-target kinases [6]; read-out: % Inhibition 2", "result": 42, "unit": "%"}, {"measurement": "inhibition", "setting": "off-target kinases [6]; read-out: % Inhibition Avg", "result": 42, "unit": "%"}, {"measurement": "inhibition", "setting": "off-target kinases [7]; read-out: % Inhibition 1", "result": 11, "unit": "%"}, {"measurement": "inhibition", "setting": "off-target kinases [7]; read-out: % Inhibition 2", "result": 17, "unit": "%"}, {"measurement": "inhibition", "setting": "off-target kinases [7]; read-out: % Inhibition Avg", "result": 14, "unit": "%"}, {"measurement": "inhibition", "setting": "off-target kinases [8]; read-out: % Inhibition 1", "result": 13, "unit": "%"}, {"measurement": "inhibition", "setting": "off-target kinases [8]; read-out: % Inhibition 2", "result": 7, "unit": "%"}, {"measurement": "inhibition", "setting": "off-target kinases [8]; read-out: % Inhibition Avg", "result": 10, "unit": "%"}]}
